What was measured:
[1] = system: advanced solid tumours and lymphoma; conditions: intravenous administration, Phase I; cited from earlier work
[2] = system: human AML patient samples; assay: Response of human AML patient samples to Birinapant in vitro; assay type: cell-based
[3] = system: Bone Marrow Derived Macrophages (BMDM); assay: BMDM cell viability (CellTiter-Glo) after SMAC mimetic Compound A ± p38 or MK2 inhibitor; assay type: cell-based, mouse; conditions: inhibitor 30 min then 500 nM Compound A, 24 h, dose dependent (FIG. 1C)
Description: FIG. 1: p38 inhibitors increase TNFα production and cell death induced by SMAC mimetics. A. Bone Marrow Derived Macrophages (BMDM) were pretreated ±1 μM of the indicated p38 inhibitors for 30 min then treated with 500 nM of SMAC mimetic Compound A (CompA) for 24 h. TNFα production was measured by ELISA of supernatants. B. BMDM were pretreated 500 nM of SMAC mimetic Compound A, GT13072 or birinapant ±1 μM of LY2228820. TNFα production was measured by ELISA of supernatants. N=3 biological repeats and error bars are SEM. C. BMDM were pretreated ± the indicated dose of MK2 inhibitor PF-3644022 and the p38 inhibitor LY2228820, VX-702, TAK-715 or VX-745 for 30 min then treated with 500 nM of SMAC mimetic Compound A. Cell viability was measured after 24 h of treatment using CellTiter-Glo® (CTG) reagent. N=3 biological repeats and error bars are SEM.
BMDMs from C56/B16, p38α^LysMCre or Mk2^−/− were cultured for 6 days in DMEM+10% FBS (v/v)+20% L929 mouse fibroblasts (a source of macrophage colony stimulating factor), plated and assayed the following day. BMDMs cells were seeded and assayed in the presence of L929 conditioned medium. AML cells were cultured in IMDM +10% FBS (v/v)+2.5 ng/ml of IL-3. NCI-H929 cells were cultured in RPMI+10% FBS (v/v). Cell suspension from breast ER+ patient derived tumours was cultured in mammosphere media. After treatment with SMAC mimetic with or without kinases inhibitors cell viability was measured by staining with propidium iodide (2 μg/mL) or by using CellTiter-Glo® (Promega).

[4] = system: Bone Marrow Derived Macrophages (BMDM); assay: TNFα production by ELISA of supernatants of BMDM treated with SMAC mimetic ± p38 inhibitors (kinase inhibitors screen); assay type: cell-based, mouse; conditions: 500 nM SMAC mimetic ± 1 μM LY2228820 (FIG. 1B)
Description: FIG. 1: p38 inhibitors increase TNFα production and cell death induced by SMAC mimetics. A. Bone Marrow Derived Macrophages (BMDM) were pretreated ±1 μM of the indicated p38 inhibitors for 30 min then treated with 500 nM of SMAC mimetic Compound A (CompA) for 24 h. TNFα production was measured by ELISA of supernatants. B. BMDM were pretreated 500 nM of SMAC mimetic Compound A, GT13072 or birinapant ±1 μM of LY2228820. TNFα production was measured by ELISA of supernatants. N=3 biological repeats and error bars are SEM. C. BMDM were pretreated ± the indicated dose of MK2 inhibitor PF-3644022 and the p38 inhibitor LY2228820, VX-702, TAK-715 or VX-745 for 30 min then treated with 500 nM of SMAC mimetic Compound A. Cell viability was measured after 24 h of treatment using CellTiter-Glo® (CTG) reagent. N=3 biological repeats and error bars are SEM. BMDMs from C56/B16, p38α^LysMCre or Mk2^−/− were cultured for 6 days in DMEM+10% FBS (v/v)+20% L929 mouse fibroblasts (a source of macrophage colony stimulating factor), plated and assayed the following day. BMDMs cells were seeded and assayed in the presence of L929 conditioned medium. AML cells were cultured in IMDM +10% FBS (v/v)+2.5 ng/ml of IL-3. […] After treatment with SMAC mimetic with or without kinases inhibitors cell viability was measured by staining with propidium iodide (2 μg/mL) or by using CellTiter-Glo® (Promega). […]

[5] = system: C57BL6 mice; assay: Tolerability of SMAC mimetic plus p38 inhibitor in non tumour-bearing mice; assay type: in vivo; conditions: 5 mg/kg GT13072 + 15 mg/kg LY2228820 i.p. (FIG. 7C)
Description: FIG. 7: Mice tolerate administration of birinapant plus p38 inhibitor. A. Mononuclear cells isolated from healthy donor by Ficoll sedimentation were treated for 48 h with indicated drugs. CD34^+ cell death was measured by staining with PI and flow cytometry. For each donor sample, graphs show mean of at least n=2 technical replicates across n=2-5 independent experiments. B and C. C57BL/6 mice were intra-peritoneally injected with vehicle (captisol 6%) or birinapant (B) or GT13072 (C) or LY2228820 or combination of LY2228820 and SM at indicated concentration. Mice received 8 injections twice a week over 4 weeks. Mice were euthanised 2 weeks after the treatment stopped. Graphs show organs, body weights and blood cell populations with 6 mice/group (B), 4 mice/group (C). Error bars are SEM.
To assess the safety of SMAC mimetic plus p38 inhibitor C57BL6 mice were injected by intra-peritoneal route twice a week for 4 weeks with either vehicle (6% Captisol) or 15 mg/kg of LY222820 or 5 mg/kg birinapant ±15 mg/kg LY2228820, or 10 mg/kg birinapant±15 mg/kg LY2228820. Another cohort received either vehicle or 5 mg/kg of GT13072, or 15 mg/kg of LY222820 or combination.
200 μL of blood was collected from the retro-orbital plexus into tubes containing potassium ethylenediaminetetraacetic acid (Sarstedt) and analyzed in an Advia 2120 automated hematologic analyzer (Bayer).

[6] = system: low- and intermediate-1-risk Myelodysplastic syndromes; conditions: oral administration, Phase I/II; cited from earlier work

For CC[C@H](NC(=O)[C@H](C)NC)C(=O)N1C[C@@H](O)C[C@H]1Cc1c(-c2[nH]c3cc(F)ccc3c2C[C@@H]2C[C@H](O)CN2C(=O)[C@H](CC)NC(=O)[C@H](C)NC)[nH]c2cc(F)ccc12 [Birinapant], the “anti-tumour activity in patients” value [1] is given as “evidence of anti-tumour activity”, the tolerability in patients [1] is given as “well tolerated with no dose-limiting toxicities” and the “response of human AML patient samples to single agent treatment” value [2] is given as “some human AML patient samples did not respond”.

In the case of CC(C)(C)Cn1c(N)nc2ccc(-c3[nH]c(C(C)(C)C)nc3-c3ccc(F)cc3)nc21 [LY2228820], the “cell death induced by SMAC mimetics” value [3] is reported as “dramatically increased cell death”, the “TNF production of three different smac-mimetics (CompA, GT13072 and birinapant)” value [4] is reported as “increased TNF production” and the “effect of LY2228820 on populations of white blood cells (ADVIA analysis)” value [5] is reported as “nor affect the populations of white blood cells”. For the same compound, the “effect of LY2228820 on the splenomegaly induced by GT13072” value [5] was “did not even exacerbate the splenomegaly”.

In the case of Cc1ccc(-c2ccc3c(ccc4sc5c(c43)NC[C@@H](C)NC5=O)n2)cn1 [PF-3644022], the “cell death induced by SMAC mimetics” value [3] is reported as “dramatically increased cell death”.

With CCc1nc(-c2cccc(C)c2)c(-c2ccnc(NC(=O)c3ccccc3)c2)s1 [TAK-715] the “cell death induced by SMAC mimetics” value [3] was “dramatically increased cell death”.

In the case of C[C@@H]1CN(Cc2ccc(F)cc2)[C@@H](C)CN1C(=O)c1cc2c(C(=O)C(=O)N(C)C)cn(C)c2cc1Cl [Talmapimod], the complete remission [6] is given as “only one patient achieved a complete remission” and the tolerability in patients [6] is given as “well tolerated”.

With NC(=O)c1ccc(N(C(N)=O)c2c(F)cccc2F)nc1-c1ccc(F)cc1F [VX-702] the “cell death induced by SMAC mimetics” value [3] was “dramatically increased cell death”.

With O=c1ncn2nc(Sc3ccc(F)cc3F)ccc2c1-c1c(Cl)cccc1Cl [VX-745] the “cell death induced by SMAC mimetics” value [3] was “dramatically increased cell death”.

Source: patent US20180117110A1, “METHOD OF TREATING CANCER” (THE WALTER AND ELIZA HALL INSTITUTE OF MEDICAL RESEARCH, priority 2014, published 2018)
